Measured values published in patent US20180235914A1, “PR[…] PHA[…] OF […] A & B AGONISTS AGAINST NEURODEGENERATIVE AND NEURODEVELOPMENTAL DISEASES” (priority 2017, published 2018).

Key:
[1] = test system: PTZ induced behavioral effects in mice; experiment: Antagonism of Pentylenetetrazole (PTZ) induced behavioral effects in mice; assay type: in vivo; conditions: compounds 50 to 200 mg/kg (ip), PTZ 10 to 70 mg/kg (ip)
Experimental: In good agreement with the above pharmacological properties, GS, GP, GL and PG, at doses of 50 to 200 mg/kg, intraperitoneal (ip), in mice antagonized all the behavioral effects (in mice) corresponding to the symptoms, in humans, announcing the development of the neurodegenerative and neurodevelopmental diseases, i.e., anxiety, fear, social disconnection, agressivity, compulsive reactions, hypermotility, stereotypic activity, pain, seizures and lethargy, appearing at various degrees according to the amplitude of the Glutamate/GABA imbalance and to the brain regions (Basal Ganglia, Hippocampus, Cortex) affected by the above imbalance. Indeed, all the above behavioral effects (obtained, in mice, by administration of the GABAergic antagonist Pentylenetetrazole (PTZ) at 10 to 70 mg/kg, (ip): with 10 to 40 mg/kg (ip) giving fear, anxiety, social disconnection, and agressivity, hypermotility and stereotypic activity—the latter being better expressed by previous (reserpine induced) hypersensibilisation of the brain DA receptors—and seizures (obtained at 50 to 70 mg/kg (ip) of PTZ), were antagonized by GS, GP, GL, and PG at 50 to 200 mg/kg (ip).

[2] = test system: Rats; experiment: Animal models in Rats (haloperidol or reserpine catalepsy, reserpine palpebral ptosis, apomorphine and haloperidol stereotypies); assay type: in vivo; conditions: inferred from catalepsy, ptosis and stereotypy models
[3] = test system: GABA receptors; experiment: Affinity for the GABA receptors; assay type: binding
[4] = Lipophilicity; assay type: physicochemical; conditions: more specifically for GS, GP and GL

| Compound | behavioral effects obtained by PTZ (fear, anxiety, social disconnection, agressivity, hypermotility, stereotypic activity, seizures) [1] | preferential brain region of action [2] | affinities for the GABA receptors [3] | lipophilicities [4] |
| --- | --- | --- | --- | --- |
| CCCCCCCCCCCCCCCCCC(=O)NCCCC(=O)O [GS, GABAstearamide] | antagonized | preferentially acting in substantia nigra | low affinities | high lipophilicities |
| NC(=O)CCC/N=C(\c1ccc(Cl)cc1)c1cc(F)ccc1O [PG, reference compound] | antagonized | preferentially acting in substantia nigra | low affinities | high lipophilicities |
| CCCCCCCCCCCCCCCC(=O)NCCCC(=O)O [GP, GABApalmitamide] | antagonized | preferentially acting in the striatum | low affinities | high lipophilicities |
| CCCCC/C=C\C/C=C\CCCCCCCC(=O)NCCCC(=O)O [GL, GABAlinoleamide] | antagonized | preferentially acting in the striatum | low affinities | high lipophilicities |
